# Values quoted from earlier work, collected in publication PMC10343355, “Finding the Right Solvent: A Novel Screening Protocol for Identifying Environmentally Friendly and Cost-Effective Options for Benzenesulfonamide” (Molecules, 2023).
# Like-named read-outs stand apart in the source and are kept apart here.
# Parameters: method as in Li et al.
# Conditions: ref Li et al., cited from earlier work
smiles,measurement,setting,value
"NS(=O)(=O)c1ccccc1 [BSA, Benzenesulfonamide]",log(x1)exp,"Acetonitrile, 0.00 °C",-1.46
same,log(x1)exp,"Acetonitrile, 6.00 °C",-1.40
same,log(x1)exp,"Acetonitrile, 10.30 °C",-1.35
same,log(x1)exp,"Acetonitrile, 15.80 °C",-1.30
same,log(x1)exp,"Acetonitrile, 20.10 °C",-1.25
same,log(x1)exp,"Acetonitrile, 25.70 °C",-1.19
same,log(x1)exp,"Acetonitrile, 30.00 °C",-1.14
same,log(x1)exp,"Acetonitrile, 35.00 °C",-1.09
same,log(x1)exp,"Acetonitrile, 40.00 °C",-1.03
same,log(x1)exp,"Acetonitrile, 44.50 °C",-0.98
same,log(x1)exp,"Acetonitrile, 50.00 °C",-0.93
same,log(x1)exp,"Cyclopentanone, 0.00 °C",-0.86
same,log(x1)exp,"Cyclopentanone, 6.00 °C",-0.84
same,log(x1)exp,"Cyclopentanone, 10.70 °C",-0.82
same,log(x1)exp,"Cyclopentanone, 16.00 °C",-0.80
same,log(x1)exp,"Cyclopentanone, 20.60 °C",-0.78
same,log(x1)exp,"Cyclopentanone, 26.00 °C",-0.75
same,log(x1)exp,"Cyclopentanone, 30.60 °C",-0.73
same,log(x1)exp,"Cyclopentanone, 36.00 °C",-0.70
same,log(x1)exp,"Cyclopentanone, 40.20 °C",-0.68
same,log(x1)exp,"Dichloromethane, 0.00 °C",-2.87
same,log(x1)exp,"Dichloromethane, 6.00 °C",-2.76
same,log(x1)exp,"Dichloromethane, 10.30 °C",-2.67
same,log(x1)exp,"Dichloromethane, 15.80 °C",-2.56
same,log(x1)exp,"Dichloromethane, 20.10 °C",-2.48
same,log(x1)exp,"Dichloromethane, 25.70 °C",-2.37
same,log(x1)exp,"Dichloromethane, 30.00 °C",-2.31
same,log(x1)exp,"Dichloromethane, 35.00 °C",-2.22
same,log(x1)exp,"Dichloromethane, 39.00 °C",-2.16
same,log(x1)exp,"Ethyl Acetate, 0.00 °C",-1.49
same,log(x1)exp,"Ethyl Acetate, 6.00 °C",-1.44
same,log(x1)exp,"Ethyl Acetate, 10.30 °C",-1.41
same,log(x1)exp,"Ethyl Acetate, 15.80 °C",-1.37
same,log(x1)exp,"Ethyl Acetate, 20.10 °C",-1.33
same,log(x1)exp,"Ethyl Acetate, 25.70 °C",-1.29
same,log(x1)exp,"Ethyl Acetate, 30.00 °C",-1.25
same,log(x1)exp,"Ethyl Acetate, 35.00 °C",-1.21
same,log(x1)exp,"Ethyl Acetate, 40.00 °C",-1.17
same,log(x1)exp,"Ethyl Acetate, 44.50 °C",-1.13
same,log(x1)exp,"Ethyl Acetate, 50.00 °C",-1.09
same,log(x1)exp,"Ethyl Formate, 0.00 °C",-1.74
same,log(x1)exp,"Ethyl Formate, 6.00 °C",-1.69
same,log(x1)exp,"Ethyl Formate, 10.30 °C",-1.64
same,log(x1)exp,"Ethyl Formate, 15.80 °C",-1.59
same,log(x1)exp,"Ethyl Formate, 20.10 °C",-1.54
same,log(x1)exp,"Ethyl Formate, 25.70 °C",-1.48
same,log(x1)exp,"Ethyl Formate, 30.00 °C",-1.44
same,log(x1)exp,"Ethyl Formate, 35.00 °C",-1.38
same,log(x1)exp,"Ethyl Formate, 40.00 °C",-1.33
same,log(x1)exp,"Ethyl Formate, 44.50 °C",-1.28
same,log(x1)exp,"Ethyl Formate, 50.00 °C",-1.22
same,log(x1)exp,"Isobutanol, 0.00 °C",-2.41
same,log(x1)exp,"Isobutanol, 6.00 °C",-2.35
same,log(x1)exp,"Isopentanol, 0.00 °C",-2.38
same,log(x1)exp,"Isopentanol, 6.00 °C",-2.31
same,log(x1)exp,"Isopentanol, 10.70 °C",-2.25
same,log(x1)exp,"Isopentanol, 16.00 °C",-2.17
same,log(x1)exp,"Isopentanol, 20.60 °C",-2.09
same,log(x1)exp,"Isopentanol, 26.00 °C",-2.00
same,log(x1)exp,"Isopentanol, 30.60 °C",-1.92
same,log(x1)exp,"Isopentanol, 36.00 °C",-1.83
same,log(x1)exp,"Isopentanol, 40.20 °C",-1.76
same,log(x1)exp,"Isopentanol, 46.00 °C",-1.68
same,log(x1)exp,"Isopentanol, 51.30 °C",-1.60
same,log(x1)exp,"Methanol, 0.00 °C",-1.53
same,log(x1)exp,"Methanol, 6.00 °C",-1.49
same,log(x1)exp,"Methanol, 10.30 °C",-1.45
same,log(x1)exp,"Methanol, 15.80 °C",-1.39
same,log(x1)exp,"Methanol, 20.10 °C",-1.34
same,log(x1)exp,"Methanol, 25.70 °C",-1.27
same,log(x1)exp,"Methanol, 30.00 °C",-1.21
same,log(x1)exp,"Methanol, 40.00 °C",-1.09
same,log(x1)exp,"Methanol, 44.50 °C",-1.03
same,log(x1)exp,"Methanol, 50.00 °C",-0.97
same,log(x1)exp,"n-Butanol, 46.00 °C",-1.56
same,log(x1)exp,"n-Butanol, 51.30 °C",-1.49
same,log(x1)exp,"n-Pentanol, 36.00 °C",-1.78
same,log(x1)exp,"n-Pentanol, 40.20 °C",-1.73
same,log(x1)exp,"n-Pentanol, 46.00 °C",-1.63
same,log(x1)exp,"n-Pentanol, 51.30 °C",-1.56
same,log(x1)exp,"n-Propanol, 0.00 °C",-2.09
same,log(x1)exp,"n-Propanol, 6.00 °C",-2.04
same,log(x1)exp,"n-Propanol, 10.70 °C",-1.99
same,log(x1)exp,"n-Propanol, 16.00 °C",-1.91
same,log(x1)exp,"n-Propanol, 20.60 °C",-1.84
same,log(x1)exp,"n-Propanol, 26.00 °C",-1.76
same,log(x1)exp,"n-Propanol, 30.60 °C",-1.68
same,log(x1)exp,"n-Propanol, 36.00 °C",-1.60
same,log(x1)exp,"n-Propanol, 40.20 °C",-1.53
same,log(x1)exp,"n-Propanol, 46.00 °C",-1.44
same,log(x1)exp,"n-Propanol, 51.30 °C",-1.37
same,log(x1)exp,"solvent Isobutanol, T 10.70 °C, mole fraction solubility",-2.27
same,log(x1)exp,"solvent Isobutanol, T 16.00 °C, mole fraction solubility",-2.18
same,log(x1)exp,"solvent Isobutanol, T 20.60 °C, mole fraction solubility",-2.09
same,log(x1)exp,"solvent Isobutanol, T 26.00 °C, mole fraction solubility",-2.00
same,log(x1)exp,"solvent Isobutanol, T 30.60 °C, mole fraction solubility",-1.92
same,log(x1)exp,"solvent Isobutanol, T 36.00 °C, mole fraction solubility",-1.83
same,log(x1)exp,"solvent Isobutanol, T 40.20 °C, mole fraction solubility",-1.75
same,log(x1)exp,"solvent Isobutanol, T 46.00 °C, mole fraction solubility",-1.67
same,log(x1)exp,"solvent Isobutanol, T 51.30 °C, mole fraction solubility",-1.59
